The text below walks through data of ChEMBL document CHEMBL1142344, “Rapid assembly of diverse and potent allosteric Akt inhibitors” (Bioorg Med Chem Lett, 2008).

The target in series [1] is T1, RAC-alpha serine/threonine-protein kinase (Homo sapiens, UniProt P31749). Description: Inhibition of human recombinant Akt1.
For series [2], the target named is T2, RAC-beta serine/threonine-protein kinase (Homo sapiens, UniProt P31751). As to the kind of experiment: Inhibition of human recombinant Akt2.
A short description of series [3]: Half life in dog at 0.25 mg/kg, iv. The series is classed as ADME, organism-based, Canis lupus familiaris. More on the design: dose 0.25 mg/kg, route intravenous. As to conditions: in vivo.
A short description of series [4]: Clearance in dog at 0.25 mg/kg, iv. The format is ADME, organism-based, Canis lupus familiaris. Details: dose 0.25 mg/kg, route intravenous. To be noted: in vivo.
Series [5] has as its target T1, RAC-alpha serine/threonine-protein kinase. Description: Inhibition of Akt1 phosphorylation in human C33a cells. The format is cell-based.
The target in series [6] is T2, RAC-beta serine/threonine-protein kinase. Description: Inhibition of Akt2 phosphorylation in human C33a cells. The series is classed as cell-based.

T2 sequence (P31751 whole entry): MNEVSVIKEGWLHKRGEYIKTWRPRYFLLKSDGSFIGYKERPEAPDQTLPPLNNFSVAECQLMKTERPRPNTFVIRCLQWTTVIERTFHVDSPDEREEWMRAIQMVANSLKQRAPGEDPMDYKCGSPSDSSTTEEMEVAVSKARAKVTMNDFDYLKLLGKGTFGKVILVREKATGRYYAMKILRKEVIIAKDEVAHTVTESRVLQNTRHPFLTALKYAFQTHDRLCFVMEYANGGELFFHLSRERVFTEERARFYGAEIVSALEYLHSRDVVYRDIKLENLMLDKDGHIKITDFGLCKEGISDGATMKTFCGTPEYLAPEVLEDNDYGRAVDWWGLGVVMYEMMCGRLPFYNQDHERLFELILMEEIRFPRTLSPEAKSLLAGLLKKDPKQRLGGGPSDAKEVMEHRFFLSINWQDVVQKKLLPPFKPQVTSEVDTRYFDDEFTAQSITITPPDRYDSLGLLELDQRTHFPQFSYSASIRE
T1 sequence (P31749 whole entry): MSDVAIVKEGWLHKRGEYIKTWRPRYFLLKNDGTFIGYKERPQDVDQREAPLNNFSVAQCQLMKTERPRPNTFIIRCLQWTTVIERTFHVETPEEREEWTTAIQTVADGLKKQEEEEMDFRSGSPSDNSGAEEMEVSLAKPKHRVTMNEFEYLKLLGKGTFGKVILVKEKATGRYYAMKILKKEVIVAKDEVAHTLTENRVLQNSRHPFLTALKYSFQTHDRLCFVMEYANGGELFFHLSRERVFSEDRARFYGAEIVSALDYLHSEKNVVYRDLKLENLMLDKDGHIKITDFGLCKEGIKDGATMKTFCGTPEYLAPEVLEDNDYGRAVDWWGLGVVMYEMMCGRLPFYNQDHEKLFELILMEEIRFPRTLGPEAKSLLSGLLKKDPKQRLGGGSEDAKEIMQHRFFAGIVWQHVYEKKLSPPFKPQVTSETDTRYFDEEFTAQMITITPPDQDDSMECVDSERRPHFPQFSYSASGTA

By IC50 is commonly meant the concentration that inhibits the measured activity by half. Consider `Nc1nn(CCc2c[nH]cn2)c2nc(-c3ccc(CN4CCC(n5c(=O)[nH]c6ccccc65)CC4)cc3)c(-c3ccccc3)cc12`, for which the IC50 in series [1] turned out to be 21 nM; in series [2], 839 nM.
For `CN(C)c1nc(-c2ccc(CN3CCC(n4c(=O)[nH]c5ccccc54)CC3)cc2)c(-c2ccccc2)cc1C#N`, the results for the IC50 in series [1] and in series [2] were 8460 nM and 15400 nM, respectively.
For `Cn1nc(N)c2cc(-c3ccccc3)c(-c3ccc(CN4CCC(n5c(=O)[nH]c6ccccc65)CC4)cc3)nc21`, the IC50 in series [1] is 121 nM; in series [2], 556 nM.
What is called half-life is the time needed for the level to fall by half in the phase considered. High values mean slow loss, low ones fast loss. As usually defined, the clearance is a measure of how efficiently the substance is removed, as volume per time. For the compound `Nc1ncnc2nc(-c3ccc(CN4CCC(c5nc6ccc(F)cc6[nH]5)CC4)cc3)c(-c3ccccc3)cc12`, in series [3], the half-life is 2.8 h. This compound also showed a clearance in series [4] of 5.6 mL/min/kg.
For `Nc1ncnc2nc(-c3ccc(CN4CCC(n5cnc6c(N)ncnc65)CC4)cc3)c(-c3ccccc3)cc12`, the IC50 is 129 nM in series [1] and 696 nM in series [2].
Regarding `Nc1ncnc2nc(-c3ccc(CN4CCC(c5cc(-c6ccncc6)[nH]n5)CC4)cc3)c(-c3ccccc3)cc12`, the IC50 in series [1] worked out at 21 nM; in series [2] it was 85 nM; in series [5], 463 nM; in series [6] it was 1200 nM.
With `COc1nc(-c2ccc(CN3CCC(n4c(=O)[nH]c5ccccc54)CC3)cc2)c(-c2ccccc2)cc1C#N`, the IC50 came out at 5550 nM in series [1] and 37700 nM in series [2].
For the compound `Nc1nc(N)c2cc(-c3ccccc3)c(-c3ccc(CN4CCC(n5c(=O)[nH]c6ccccc65)CC4)cc3)nc2n1`, the IC50 was 107 nM in series [1] and 274 nM in series [2].
Taken in the same sequence, the figures for `CNc1nc(-c2ccc(CN3CCC(n4c(=O)[nH]c5ccccc54)CC3)cc2)c(-c2ccccc2)cc1C#N` were 2250 nM and 8140 nM.
For `Nc1ncnc2nc(-c3ccc(CN4CCC(n5c(=O)[nH]c6ccccc65)CC4)cc3)c(-c3ccccc3)cc12`, the IC50 was 81 nM in series [1], 259 nM in series [2], 1830 nM in series [5] and 5080 nM in series [6].
Taken in the same sequence, the figures for `Cc1nc2ccccc2n1C1CCN(Cc2ccc(-c3nc4ncnc(N)c4cc3-c3ccccc3)cc2)CC1` were 69 nM, 281 nM, 221 nM and 344 nM.
Take `N#Cc1cc(-c2ccccc2)c(-c2ccc(CN3CCC(n4c(=O)[nH]c5ccccc54)CC3)cc2)nc1N`: the IC50 in series [1] turned out to be 495 nM; in series [2], 2060 nM.
In the case of `Nc1n[nH]c2nc(-c3ccc(CN4CCC(n5c(=O)[nH]c6ccccc65)CC4)cc3)c(-c3ccccc3)cc12`, the IC50 in series [1] worked out at 86 nM; in series [2], 7360 nM.
Taken in the same sequence, the figures for `Nc1nn(CCO)c2nc(-c3ccc(CN4CCC(n5c(=O)[nH]c6ccccc65)CC4)cc3)c(-c3ccccc3)cc12` were 131 nM and 1230 nM.
`Nc1nc(O)nc2nc(-c3ccc(CN4CCC(n5c(=O)[nH]c6ccccc65)CC4)cc3)c(-c3ccccc3)cc12`: the figures for the IC50 in series [1] and in series [2] were 244 nM and 577 nM, respectively.
Take `N#Cc1cc(-c2ccccc2)c(-c2ccc(CN3CCC(n4c(=O)[nH]c5ccccc54)CC3)cc2)nc1Cl`: the 50% inhibitory concentration (IC50) in series [1] turned out to be 253 nM; in series [2], 7360 nM.
